Here are results for 1 substance from patent publication US6410009B1, “Pharmaceutical composition for treating hepatitis B virus (HBV) infection” (Hadasit Medical Research Services & Development Co., Ltd., priority 1997, dated 2002).

Test [1] has as its system HBV. As to the kind of experiment: HBV-DNA by PCR in sera of chimeric mice after intrasplenic injection of HepG2-derived cell lines incubated with HBV with or without hIL6. The class given is in vivo, SCID>BNX chimeric mice. The conditions noted are these: HepG2-hIL6R cells incubated with HBV in the presence of hIL6. The method, then:
Following incubation, the various mixtures were injected intrasplenically to the chimeric mice to generate HCC foci in the liver, as shown in FIG. 4.
All cell lines grew in T25 flasks supplemented with DMEM medium, enriched with 10% fetal bovine serum. For infection experiments, cells were trypsinized and washed twice with PBS, followed by incubation with HBV-positive human sera ([…]) in the presence or absence of hIL6 (500 ng/ml) in 1-2 ml of DMEM. After 2-4 h incubation at 37° C., 4×10^6 cells/ml, 0.5 ml/mouse were injected intrasplenically to 8-10 SCID>BNX mice in each group. Animals were splenectomized following the injection.
Mice were bled at two weekly intervals for 3 months, and DNA was extracted from 100 μl sera. The DNA was subjected to PCR amplification. The DNA extraction and the PCR method applied are described in the legend of FIG. 3.

The subject of test [2] is HBV. As to the kind of experiment: HBV viremia in SCID>BNX chimeric mice transplanted with normal human liver fragments incubated ex-vivo with HBV-positive sera with hIL6. The method, then:
A fragment of normal human liver from a patient with no indication of any HBV-related markers or disease, was incubated ex-vivo with a high titer HBV DNA-positive serum prior to transplantation under the kidney capsule of the chimeric animals. HBV DNA sequences were undetectable by PCR from two different genomic regions in any of these animals during the month following transplantation.
However, when liver tissue originating from the same patients was incubated ex-vivo with the above-mentioned HBV DNA-positive sera together with hIL6, HBV DNA sequences were detected from day 16 to day 31, in sera of about 50% of the transplanted animals.
Pre-exposure of liver tissue to hIL6 prior to incubation with HBV ex-vivo, increased infection to about 90% of the animals. […]
The 50 μl PCR reaction volume contained 10 pmole of each oligonucleotide primer in reaction buffer (10 mM Tris-HCl, pH 8.3, 50 mM KCl, 2.0 mM MgCl2, 0.01 % (w/v) gelatin, 250 μM of dATP, dGTP, dCTP, dTTP and 0.5 u of Taq polymerase. The reaction mixtures were overlaid with 30 μl of mineral oil. PCR cycles included 94° C. for 1 min., 55° C. for 1 min. and 72° C. for 3 min., 35 repeated cycles. 10 μl of reaction mixture was analyzed on a 2% agarose gel. Oligonucleotides used for the pre-core/core amplification were: […]

For test [3], the system named is HBV. As to the kind of experiment: HBV infection of human hepatocellular carcinoma cell line HuH7. The conditions noted are these: hIL-6 500 ng/ml. It is filed as cell-based. The method, then:
HBV infection protocol of human hepatocellular carcinoma cell line HuH7: Human sera were screened for the presence of HBV DNA sequences. Positive sera were analyzed quantitatively for viral particle concentration, as described by A. Klein, J. Clin. Microb., vol. 35, pp. 1897-1899 […]. Sera containing over 108 particles per ml were selected for infection experiments. The infection experiments included the following groups: Group 1—Cells were incubated with HBV without the addition of hIL-6 in the presence of polybrene 2 mg/ml, for 90 min at 37° C., in a 5% CO2 shaking incubator, in a total volume of 1.5 to 2 ml. Group 2—Cells were incubated with 1 ml of HBV positive serum, in the presence of hIL-6 (500 ng/ml) and polybrene 2 mg/ml, for 90 min at 37° C., in a 5% CO2 incubator, in a total volume of 1.5 to 2 ml. Group 3—Cells were incubated with 1 ml of HBV positive serum, in the presence of the cytokine hyper-IL-6 (HIL-6), 1.5 mg/ml, and polybrene 2 mg/ml, for 90 min at 37° C., in a 5% CO2 shaking incubator, in a total volume of 1.5 to 2 ml. The preparation of the cytokine hyper-IL-6 (HIL-6) is described in M. Fischer, et al., Nat. Biotechnol., vol. 15, pp. 142-145 (1997); T. Rakemann et al., J. Biol. Chem., vol. 274, pp. 1257-1266 (1999); P. Schirmacher et al., Am. J. Pathol., vol. 153, pp. 639-648 (1998). […]

Consider hIL6: human interleukin 6, for which the “time after transplantation at which HBV-DNA sequences could be detected in serum” value in the test on HBV [1] worked out at 13 days. The “transplanted animals with HBV DNA sequences detected in sera” value with HBV [2] (liver tissue incubated ex-vivo with HBV DNA-positive sera together with hIL6 (500 ng/ml), day 16 to day 31) is “about 50%”. In addition, the animals infected result with HBV [2] (pre-exposure of liver tissue to hIL6 prior to incubation with HBV ex-vivo) is listed as “about 90%”. Besides, the “HBV infection of HuH7 cells” value with HBV [3] is “enhanced”.
